Test results: patent publication US9757357B2, “Photodynamic therapy or diagnostic agent, using infrared-spectrum light” (Tokyo Institute of Technology, priority 2011, dated 2017)

System: MKN45 cells
Experiment: ALA-PDT using LNP under 980-nm NIR irradiation (MTT viability)
Type: cell-based, Human
Protocol: MKN45 cells were irradiated with NIR in the presence of ALA and LNP to confirm whether cell death occurred.
A medium in a 10-cm dish containing MKN45 cells cultured in a liquid medium (RPMI-1640, FBS(+), and PSN(+)) was aspirated, and the cells were washed with 3 ml of a PBS solution. 1 ml of trypsin was added thereto, and the mixture was incubated (37° C. and 5% CO2) for 5 minutes. The enzymatic reaction of trypsin was terminated by the addition of 5 ml of a fresh medium. A total of 6 ml of the reaction mixture was centrifuged at 1100 rpm for 5 minutes. In this procedure, 10 μl of the sample was mixed with a dye trypan blue, which dyes dead cells. The number of cells was counted using a hemacytometer. After the centrifugation, the supernatant was aspirated, and 2 ml of a fresh medium was added to the cells. The resulting cells were inoculated at a concentration of 100 μl/well (2×10^4 cells/well) to a 96-well plate for ALA concentrations 1000, 100, 10, and 0 μM and a blank. LNP(+) and LNP(−) series were prepared per sample, and these samples were divided into two different plates for NIR(+) and NIR(−). After overnight culture, the medium in each well was discarded. 100 μl of a fresh medium (containing 2.5 mg/ml LNP for the LNP(+) series) and 0.2 M ALA adjusted to the concentrations mentioned above were added to each well of the plates. After incubation for 4 hours, each plate was irradiated from 50 mm above with 980-nm NIR (400 mA) for 3 min/well. After overnight culture, the medium in each well was discarded, and the cells were washed with 100 μl of a PBS solution. 100 μl of a fresh medium and 10 μl of an MTT methanol solution diluted 10-fold with PBS were added to each well. After incubation for 4 hours, 10% SDS was added thereto at a concentration of 100 μl/well, and the mixture was incubated overnight. The absorbance was measured at 570 nm to 660 nm.
ALA-PDT was performed using commercially available LNP in the same way as in Example 4 except that the concentration of MKN45 cells was changed to 2×10^4 cells/well; the ALA concentrations were changed to 2000, 1000, 100, 10, and 0 μM; the culture time after addition of ALA was changed from 4 hours to 24 hours; and the NIR irradiation time was changed to 90 min/well.
ALA-PDT was performed using synthetic LNP in the same way as in Example 5 except that: the concentration of the synthetic LNP prepared in Example 6 was set to 2 mg/mL; and the ALA concentrations were changed to 2000, 1500, 1000, 100, and 0 μM.

In the case of `NCC(=O)CCC(=O)O` [ALA, 5-aminolevulinic acid], the cell viability (Example 4, FIG. 4, LNP(−),NIR(+), ALA 0-1000 μM, 4 h, 980-nm NIR 3 min/well) is reported as “slight reduction in viability was confirmed”, the cell viability (Example 4, FIG. 4, no NIR irradiation, ALA 0-1000 μM, 4 h, LNP(+) series 2.5 mg/ml and LNP(−) series) is reported as “no change was observed in cell viability” and the cell viability (Example 5, FIG. 5, LNP(−),NIR(+), ALA 0-2000 μM, 24 h, NIR 90 min/well) is reported as “no change was confirmed in cell viability”. The cell viability (Example 5, FIG. 5, no NIR irradiation, ALA 0-2000 μM, 24 h) was “no change was confirmed in cell viability”.
